Measurements as given in PubChem BioAssay (NCI).
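Growth conditions: 96-well plates. Treatment: test compound, 48 hours, 5 concentrations. Analysis: linear interpolation between bracketing concentrations; unreached endpoints set to highest concentration. Abbreviation: GI50, concentration required for 50% inhibition of growth. At the TGI there is no net growth.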

Tests used:
Experiment in all cases: NCI anticancer screen, dose series, 48 h
[1] = test system: 786-0 renal
[2] = test system: A498 renal
[3] = test system: A549 NSCLC
[4] = test system: ACHN renal
[5] = test system: BT-549 breast
[6] = test system: CAKI-1 renal
[7] = test system: CCRF-CEM leukemia
[8] = test system: COLO 205 colon
[9] = test system: DU-145 prostate
[10] = test system: EKVX NSCLC
[11] = test system: HCC-2998 colon
[12] = test system: HCT-116 colon
[13] = test system: HCT-15 colon
[14] = test system: HL-60(TB) leukemia
[15] = test system: HOP-62 NSCLC
[16] = test system: HOP-92 NSCLC
[17] = test system: HS 578T breast
[18] = test system: HT29 colon
[19] = test system: IGROV1 ovarian
[20] = test system: K-562 leukemia
[21] = test system: KM12 colon
[22] = test system: LOX IMVI melanoma
[23] = test system: M14 melanoma
[24] = test system: MALME-3M melanoma
[25] = test system: MCF7 breast
[26] = test system: MDA-MB-231 breast
[27] = test system: MDA-MB-435
[28] = test system: MDA-MB-468 breast
[29] = test system: MOLT-4 leukemia
[30] = test system: NCI-H226 lung
[31] = test system: NCI-H23 lung
[32] = test system: NCI-H460 lung
[33] = test system: NCI-H522 lung
[34] = test system: NCI/ADR-RES ovarian
[35] = test system: OVCAR-3 ovarian
[36] = test system: OVCAR-4 ovarian
[37] = test system: OVCAR-5 ovarian
[38] = test system: OVCAR-8 ovarian
[39] = test system: PC-3 prostate
[40] = test system: RPMI-8226 leukemia
[41] = test system: RXF 393 renal
[42] = test system: SF-268 CNS
[43] = test system: SF-295 CNS
[44] = test system: SF-539 CNS
[45] = test system: SK-MEL-2 melanoma
[46] = test system: SK-MEL-28 melanoma
[47] = test system: SK-MEL-5 melanoma
[48] = test system: SK-OV-3 ovarian
[49] = test system: SN12C renal
[50] = test system: SNB-19 CNS
[51] = test system: SNB-75 CNS
[52] = test system: SR leukemia
[53] = test system: SW-620 colon
[54] = test system: T-47D breast
[55] = test system: TK-10 renal
[56] = test system: U251 CNS
[57] = test system: UACC-257 melanoma
[58] = test system: UACC-62 melanoma
[59] = test system: UO-31 renal

Compound: CC12CCC3(CCC(=O)NCCCNc4ccnc5cc(Cl)ccc45)[C@@](C)(OO[C@]3(C)O1)O2
- GI50 [1]: 1.79 µM
- TGI [1]: 8.62 µM
- GI50 [2]: 3.86 µM
- TGI [2]: 22.7 µM
- GI50 [3]: 2.99 µM
- TGI [3]: > 25.5 µM
- GI50 [4]: 1.16 µM
- TGI [4]: 6.73 µM
- GI50 [5]: 5.28 µM
- TGI [5]: 15.5 µM
- GI50 [6]: 0.951 µM
- TGI [6]: 4.75 µM
- GI50 [7]: 3.85 µM
- TGI [7]: 11 µM
- GI50 [8]: 4.99 µM
- TGI [8]: > 25.5 µM
- GI50 [9]: 3.42 µM
- TGI [9]: 11.9 µM
- GI50 [10]: 1.99 µM
- TGI [10]: 19.4 µM
- GI50 [11]: 8.01 µM
- TGI [11]: > 25.5 µM
- GI50 [12]: 3.71 µM
- TGI [12]: 13.3 µM
- GI50 [13]: 7.9 µM
- TGI [13]: > 25.5 µM
- GI50 [14]: 4.94 µM
- TGI [14]: 11.7 µM
- GI50 [15]: 1.41 µM
- TGI [15]: 6.48 µM
- GI50 [16]: 1.47 µM
- TGI [16]: 12 µM
- GI50 [17]: 3 µM
- TGI [17]: 14.1 µM
- GI50 [18]: 6.19 µM
- TGI [18]: 23.3 µM
- GI50 [19]: 2.8 µM
- TGI [19]: 8.22 µM
- GI50 [20]: 5.55 µM
- TGI [20]: > 25.5 µM
- GI50 [21]: 4.5 µM
- TGI [21]: 24.2 µM
- GI50 [22]: 1.34 µM
- TGI [22]: 4.71 µM
- GI50 [23]: 4.36 µM
- TGI [23]: 17.4 µM
- GI50 [24]: 4.73 µM
- TGI [24]: 19.6 µM
- GI50 [25]: 1.68 µM
- TGI [25]: > 25.5 µM
- GI50 [26]: 1.4 µM
- TGI [26]: 9.92 µM
- GI50 [27]: 4.89 µM
- TGI [27]: > 25.5 µM
- GI50 [28]: 4.05 µM
- TGI [28]: 9.17 µM
- GI50 [29]: 4.68 µM
- TGI [29]: 14.3 µM
- GI50 [30]: 1.72 µM
- TGI [30]: 15 µM
- GI50 [31]: 3.77 µM
- TGI [31]: 11.8 µM
- GI50 [32]: 2.49 µM
- TGI [32]: 11.4 µM
- GI50 [33]: 3.02 µM
- TGI [33]: 6.79 µM
- GI50 [34]: 5.84 µM
- TGI [34]: 19.4 µM
- GI50 [35]: 3.61 µM
- TGI [35]: 10.8 µM
- GI50 [36]: 4.89 µM
- TGI [36]: > 25.5 µM
- GI50 [37]: 4.2 µM
- TGI [37]: 16 µM
- GI50 [38]: 4.92 µM
- TGI [38]: 12.7 µM
- GI50 [39]: 6.72 µM
- TGI [39]: > 25.5 µM
- GI50 [40]: 5.86 µM
- TGI [40]: > 25.5 µM
- GI50 [41]: 0.646 µM
- TGI [41]: 2.74 µM
- GI50 [42]: 2.09 µM
- TGI [42]: 8.55 µM
- GI50 [43]: 4.5 µM
- TGI [43]: 15 µM
- GI50 [44]: 3.38 µM
- TGI [44]: 7.38 µM
- GI50 [45]: 8.21 µM
- TGI [45]: > 25.5 µM
- GI50 [46]: 8.78 µM
- TGI [46]: > 25.5 µM
- GI50 [47]: 4.36 µM
- TGI [47]: 17.2 µM
- GI50 [48]: 5.46 µM
- TGI [48]: 16.1 µM
- GI50 [49]: 2.14 µM
- TGI [49]: 12.2 µM
- GI50 [50]: 7.12 µM
- TGI [50]: > 25.5 µM
- GI50 [51]: 0.618 µM
- TGI [51]: 3.77 µM
- GI50 [52]: 3.66 µM
- TGI [52]: 16.3 µM
- GI50 [53]: 3.62 µM
- TGI [53]: > 25.5 µM
- GI50 [54]: 5.99 µM
- TGI [54]: > 25.5 µM
- GI50 [55]: 1.23 µM
- TGI [55]: 11.3 µM
- GI50 [56]: 4.45 µM
- TGI [56]: 11.6 µM
- GI50 [57]: 8.99 µM
- TGI [57]: > 25.5 µM
- GI50 [58]: 5.58 µM
- TGI [58]: > 25.5 µM
- GI50 [59]: 1.43 µM
- TGI [59]: 6.78 µM
